Results from US6608086B2, “Dihydropyridines and new uses thereof” (Synaptic Pharmaceutical Corporation, priority 1993, dated 2003).
Counter-ions that a name gives are not always drawn. Like-named read-outs stand apart in the source and are kept apart here.

How the values were obtained:
[1] = test system: human prostatic tissue; experiment: In vitro human prostate model: block of phenylephrine-induced contraction of human prostatic tissue; format: cell-based; details: block of phenylephrine-induced contraction of human prostate
Excerpt: The protocol for these experiments is given below.
Functional Properties of α1 Antagonists in the Human Prostate
The efficacy of α1 adrenergic antagonists for the treatment of benign prostatic hyperplasia (BPH) is related to their ability to elicit relaxation of prostate smooth muscle. An index of this efficacy can be obtained by determining the potency of al antagonists to antagonize the contraction of human prostatic tissue induced by an α1 agonist “in vitro”. Furthermore, by comparing the potency of subtype selective α1 antagonists in binding assays using human α1 receptors with their potency to inhibit agonist-induced smooth muscle contraction, it is possible to determine which of the α1 adrenergic receptor subtypes is involved in the contraction of prostate smooth muscle.
Prostatic adenomas were obtained at the time of surgery from patients with symptomatic BPH. […] The baths were maintained at 37° C. and continuously oxygenated with 5% CO2 and 95% O2. Isometric tension was measured with a Grass Instrument FT03 force transducer interfaced with a computer. Tissue strips were contracted with varying concentrations of phenylephrine after incubating for 20 minutes in the absence and presence of at least three different concentrations of antagonist. Dose-response curves for phenylephrine were constructed, and the antagonist potency (pA2) was estimated by the dose-ratio method. The concentration of some antagonists in the tissue bath was assessed by measuring the displacement of [3H]prazosin by aliquots of the bath medium, using membrane preparations of the cloned human α1C receptor. This control was necessary to account for losses of antagonist due to adsorption to the tissue bath and/or metabolism during the time the antagonists were equilibrated with the prostate tissue.

[2] = target: T1, α2B receptor (Homo sapiens, UniProt P18089); experiment: Competition binding, [3H]rauwolscine, human α2B receptor
T1 construct: host or cells: LM(tk-) cells, line L-NGC-α2B
T1 sequence (P18089 1-450): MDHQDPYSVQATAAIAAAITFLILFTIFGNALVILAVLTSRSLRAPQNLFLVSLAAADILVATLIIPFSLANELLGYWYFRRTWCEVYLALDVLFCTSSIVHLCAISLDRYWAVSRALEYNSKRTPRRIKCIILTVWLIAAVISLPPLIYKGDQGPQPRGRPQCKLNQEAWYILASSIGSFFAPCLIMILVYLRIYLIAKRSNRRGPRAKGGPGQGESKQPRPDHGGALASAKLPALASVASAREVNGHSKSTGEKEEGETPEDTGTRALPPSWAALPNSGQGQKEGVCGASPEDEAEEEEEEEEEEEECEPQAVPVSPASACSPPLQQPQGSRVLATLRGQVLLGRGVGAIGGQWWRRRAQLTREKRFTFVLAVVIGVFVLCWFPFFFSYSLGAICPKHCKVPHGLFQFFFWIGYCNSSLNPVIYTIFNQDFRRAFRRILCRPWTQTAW
In short: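 LM(tk−) lysates, stable α2A/α2B/α2C transfectants; 25 mM glycylglycine pH 7.6 (RT). [3H]rauwolscine 0.5 nM, equilibrium competition; NSB 10 μM phentolamine. GF/B filtration, cell harvester.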

[3] = test system: canine prostate; experiment: In vivo dog prostate model: inhibition of phenylephrine-induced increase in urethral pressure in anesthetized dogs; details: inhibition of phenylephrine-induced increases in urethral pressure, anesthetized dogs
Description: Protocol for In Vivo Evaluation of Compounds in Canine Prostate
Adult male mongrel dogs more than one year of age were chosen for the model. After induction of general anesthesia using sodium pentobarbital (25 mg/Kg i.v.), the animals were intubated and allowed to breathe spontaneously. An arterial catheter was inserted via the femoral artery to monitor blood pressure and i.v. line was inserted into the leg for fluid and drug administration. A constant saline infusion was maintained at 40 to 50 mL/h. Next, a seven cm lower abdominal incision was made one cm lateral to the penis.
The bladder, prostate and a short segment of urethra were identified and isolated, without damage to the nerves or blood vessels. A cystotomy incision was made through which the pressure catheter was inserted and positioned in the prostatic urethra. The cystotomy was not closed, but the wound edges were sutured to stop bleeding. The tip of the catheter was positioned just distal to the prostate and secured in place with an O-silk tie around the urethra. A second holding suture at the bladder neck secured the catheter in place.
Fluid, either water or saline, was pumped by a Harvard infusion pump at 0.1 mL/min through a Gould pressure transducer into the catheter. The fluid exists at a port in the catheter which is in the prostatic urethra. Occlusion of the port, by contraction of the prostate, blocks the flow and a pressure wave is created. This pressure is transmitted back through the catheter to the transducer which is attached to a Gould recorder. Squeezing the prostate gland caused an increase in urethral pressure which verified the correct position in the urethra.
The compounds were tested as follows: A dose response curve was first generated for phenylephrine alone, in doses ranging from one μg/Kg to 50 μg/Kg. The absolute rise in urethral pressure was recorded for each dose and the next dose given when the urethral pressure returned to baseline. Phenylephrine dose response curves were generated in all animals tested. Increasing doses of compounds were then given, and the phenylephrine dose response curve repeated in the prepense of each dose of the compound. No animal received more than one compound; four animals were used to test each compound. To test for tachyphylaxis, four separate dogs were challenged with repeated phenylephrine doses for six hrs, the usual length of each experiment. From the dose-effect data, the inhibition constant (Ki) and the median-effect dose (ED50) were calculated. Both the Ki and ED50 values given are calculated by using microcomputer software and an IBM-PC.

[4] = pKi alpha-2 2b, [3H]rauwolscine, LM(tk-) cell line L-NGC-α2B, SEM and n in lines below
[5] = pKi alpha-2 2b, [3H]rauwolscine, human α2B receptor, LM(tk−) cells

`CCC1=C(C(=O)NCCCN2CCC(c3ccccc3)(c3ccccc3)CC2)C(c2ccc([N+](=O)[O-])cc2)C(C(N)=O)=C(C)N1` (centres unmarked) [Example 81, 5-carboxamido-2-ethyl-1,4-dihydro-6-methyl-4-(4-nitro)phenyl-3-(N-(3-(4,4-diphenylpiperidin-1-yl)propyl))carboxamidopyridine hydrochloride] gave a pA2 [1] of 8.60 ± 0.03 and a Ki [2, 4] of 162 nM.
In the case of `CCC1=C(C(=O)NC)C(c2ccc([N+](=O)[O-])cc2)C(C(=O)NCCCN2CCC(c3ccccc3)(c3ccccc3)CC2)=C(CC)N1` (centres unmarked) [Example 128, 2,6-Diethyl-1,4-dihydro-5-(N-methyl)carboxamido-4-(4-nitrophenyl)-3-{N-[3-(4,4-diphenylpiperidin-1-yl)propyl]}carboxamidopyridine], the melting point is reported as 123 to 126 °C, the pA2 [1] is reported as 8.21 ± 0.06 and the Ki [2, 5] is reported as 437 nM.
`CCC1=C(C(N)=O)C(c2ccc([N+](=O)[O-])cc2)C(C(=O)NCCCN2CCC(C#N)(c3ccccc3)CC2)=C(CC)N1` (single isomer, unassigned; (+)) [(+)-102] gave a pA2 [1] of 10.43 ± 0.14 and a Ki [2, 5] of 1910 nM.
With `CCC1=C(C(=O)NCCCN2CCC(c3ccccc3)(c3ccccc3)CC2)C(c2ccc([N+](=O)[O-])cc2)C(C(=O)OC)=C(C)N1` (centres unmarked) [Example 73, 2-Ethyl-1,4-dihydro-5-methoxycarbonyl-6-methyl-4-(4-nitro) phenyl-3-(N-(3-(4,4-diphenylpiperidin-1-yl)propyl))carboxamidopyridine] the pA2 [1] was 8.56 ± 0.07 and the Ki ([2]; pKi alpha-2 2b) was 676 nM.
In the case of `COC(=O)C1=C(C)NC(C)=C(C(=O)NCCCN2CCC(c3ccccc3)(c3ccccc3)CC2)C1c1ccc(I)cc1` (centres unmarked) [Example 13, 1,4-Dihydro-4-(4-iodophenyl)-3-methoxycarbonyl-2,6-dimethyl-5-(N-(3-(4,4-diphenylpiperidin-1-yl)propyl)carboxamido)pyridine], the melting point is reported as 228 to 230 °C (dec.) and the Ki ([2]; pKi alpha-2 2b) is reported as 1740 nM.
For `COC(=O)C1=C(C)NC(C)=C(C(=O)NCCCN2CCC(c3ccccc3)(c3ccccc3)CC2)C1c1ccc(Cl)c(Cl)c1` (centres unmarked) [Example 24, 4-(3,4-Dichlorophenyl)-1,4-dihydro-3-methoxycarbonyl-2,6-dimethyl-5-(3-(D 44-diphenylpiperidin-1-yl)propylcarboxamido)pyridine], the melting point was 177 to 178 °C and the Ki ([2]; pKi alpha-2 2b) was 1260 nM.
For `COC(=O)C1=C(C)NC(C)=C(C(=O)NCCCN2CCC(c3ccccc3)(c3ccccc3)CC2)C1c1cc[n+]([O-])cc1` (centres unmarked) [Example 9, 1,4-Dihydro-3-methoxycarbonyl-2,6-Dimethyl-4-(1-oxido-4-pyridyl)-5-(N-(3-(4,4-diphenylpiperidin-1-yl)propyl)carboxamido)pyridine], the melting point was 206 to 209 °C (dec.) and the Ki [2, 4] was 550 nM.
In the case of `CCC1=C(C(N)=O)C(c2ccc([N+](=O)[O-])cc2)C(C(=O)NCCCN2CCC(c3ccccc3)(c3ccccc3)CC2)=C(CC)N1` (centres unmarked) [Example 42, 5-carboxamido-2,6-diethyl-1,4-dihydro-4-(4-nitrophenyl)-3-{N-[3-(4,4-diphenylpiperidin-1-yl)propyl]}carboxamidopyridine], the melting point is reported as 119 to 123 °C, the pA2 [1] is reported as 8.92 ± 0.08 and the “Urethral Pressure K i” value [3] is reported as 9 ± 2.5 nmol/kg. It also gave a Ki [2, 4] of 229 nM.
`COC(=O)C1=C(C)NC(C)=C(C(=O)NCCCN2CCC(c3ccccc3)(c3ccccc3)CC2)C1c1ccc(F)cc1` (centres unmarked) [Example 20, 4-(4-Fluorophenyl)-1,4-dihydro-3-methoxycarbonyl-2,6-dimethyl-5-(N-(3-(4,4-diphenylpiperidin-1-yl)propyl)carboxamido)pyridine] gave a melting point of 251 to 251.5 °C and a Ki ([2]; pKi alpha-2 2b) of 1320 nM.
With `COC(=O)C1=C(C)NC(C)=C(C(=O)NCCCN2CCC(c3ccccc3)(c3ccccc3)CC2)C1c1ccc(Cl)cc1` (centres unmarked) [Example 10, 4-(4-Chlorophenyl)-1,4-dihydro-5-methoxycarbonyl-2,6-Dimethyl-5-(N-(3-(4,4-diphenylpiperidin-1-yl)propyl)carboxamido)pyridine] the melting point was 240 to 242 °C and the Ki ([2]; pKi alpha-2 2b) was 3310 nM.
`CC1=C(C(N)=O)C(c2cccc([N+](=O)[O-])c2)C(C(=O)NCCCN2CCC(c3ccccc3)(c3ccccc3)CC2)=C(C)N1` (centres unmarked) [Example 61, 5-Carboxamido-1,4-dihydro-2,6-dimethyl-4-(3-nitrophenyl)-3-{N-[3-(4,4-diphenylpiperidin-1-yl)propyl]}carboxamidopyridine] gave a melting point of 144 to 148 °C and a Ki ([2]; [3H]rauwolscine, LM(tk-) cell line L-NGC-α2B, SEM and n in lines below, read-out: pKi alpha-2 2b (converted)) of 603 nM.
For `COC(=O)C1=C(C)NC(C)=C(C(=O)NCCCN2CCC(c3ccccc3)(c3ccccc3)CC2)C1c1cccnc1` (centres unmarked) [Example 14, 1,4-Dihydro-3-methoxycarbonyl-2.6-dimethyl-5-(N-(3-(4,4-diphenylpiperidin-1-yl)propyl)carboxamido)-4-(3-pyridyl)pyridine], the melting point was 244 to 247 °C (dec.) and the Ki [2, 4] was 1350 nM.
In the case of `CC1=C(C(=O)NCCCN2CCC(c3ccccc3)(c3ccccc3)CC2)C(c2ccc([N+](=O)[O-])cc2)C(C(=O)NC(C)C)=C(C)N1` (centres unmarked) [Example 156, 1,4-Dihydro-3-(N-isopropyl) carboxamido-2,6-dimethyl-4-(4-nitrophenyl)-5-{N-[3-(^414-diphenylpiperidin-1-yl)propyl]}carboxamidopyridine], the melting point is reported as 123 to 125 °C and the Ki [2, 5] is reported as 562 nM.
`CCC1=C(C(N)=O)C(c2ccc([N+](=O)[O-])cc2)C(C(=O)NCCCN2CCC(c3ccccc3)(c3ccccc3)CC2)=C(C)N1` (centres unmarked) [Example 41, 3-Carboxamido-2-ethyl-1,4-dihydro-6-methyl-4-(4-nitrophenyl)-3-{N-[3-(4,4-diphenylpiperidin-1-yl)propyl]}carboxamidopyridine] showed a melting point of 120 to 124 °C and a Ki [2, 4] of 603 nM.
For `CC(C)C1=C(C(N)=O)C(c2ccc([N+](=O)[O-])cc2)C(C(=O)NCCCN2CCC(c3ccccc3)(c3ccccc3)CC2)=C(C(C)C)N1` (centres unmarked) [Example 127], the melting point was 76 to 80 °C and the “pKi alpha-2 2b” value ([2]; [3H]rauwolscine, human α2B receptor, LM(tk−) cells) was 6.42.
In the case of `CCC1=C(C(=O)NCCCN2CCC(c3ccccc3)(c3ccccc3)CC2)C(c2ccc([N+](=O)[O-])cc2)C(C(=O)OC(C)(C)C)=C(COCCN=[N+]=[N-])N1` (centres unmarked) [Example 139], the melting point is reported as 62 to 67 °C and the Ki [2, 5] is reported as 1260 nM.
